This test deals with human OX2R (Homo sapiens (Human), UniProt O43614). Kind of test: IPOne (IP-One, Cisbio) orexin receptor agonist assay in CHO cells expressing human OX2R. The settings on record: for Emax: CHO; for Emax / Emax (%): hOX2R_IP, percentage of mean max effect of a reference compound at 1 uM (100% activity vs Orexin A).

From patent US11098029B2, “5-alkyl pyrrolidine orexin receptor agonists” (Merck Sharp & Dohme Corp., priority 2019, dated 2021) come the findings set out here.

In general, Emax refers to the maximal effect, on the per cent scale that the assay sets. By IC50 is commonly meant the midpoint of a concentration-inhibition curve. A high value points to weaker potency.

human OX2R, sequence (O43614 whole entry): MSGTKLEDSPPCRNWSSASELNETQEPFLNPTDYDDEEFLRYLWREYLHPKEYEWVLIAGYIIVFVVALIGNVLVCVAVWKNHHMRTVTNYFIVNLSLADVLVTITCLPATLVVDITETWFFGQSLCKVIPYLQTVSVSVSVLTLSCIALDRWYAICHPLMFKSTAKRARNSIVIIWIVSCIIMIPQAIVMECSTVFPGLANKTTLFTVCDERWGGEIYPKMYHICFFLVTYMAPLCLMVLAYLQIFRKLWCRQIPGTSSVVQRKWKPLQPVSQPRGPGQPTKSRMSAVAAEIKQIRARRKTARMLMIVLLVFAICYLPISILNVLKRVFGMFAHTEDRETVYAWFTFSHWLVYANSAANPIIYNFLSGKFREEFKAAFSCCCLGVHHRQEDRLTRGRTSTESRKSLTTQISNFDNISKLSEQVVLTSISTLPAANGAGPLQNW
Procedure: Both the OX1R and/or OX2R G-coupled protein receptors (GPCRs) couple through the Gaq signaling pathway, which ultimately promotes calcium mobilization via inositol triphosphate (IP3) production.
In a typical experiment, the OX1 and OX2 receptor agonist activity is determined in accordance with the following general experimental method. Chinese hamster ovary (CHO) cells expressing human OX1R and/or the human OX2R were grown in Iscove's modified DMEM containing glutaMAX®, 1% G418, 100 U/mL penicillin, 100 μg/mL streptomycin and 10% heat-inactivated qualified fetal bovine serum (FBS). […] During this incubation, IP-one detection reagents were prepared (38:1:1 lysis buffer:D2:AB-cryptate reagents).
For each compound, data were fit to a four parameter logistic fit (ActivityBase software) and the EC50 was reported as the inflection point of the resulting curve.

`COC(=O)N1[C@H](C)C[C@H](NS(C)(=O)=O)[C@@H]1CO[C@H]1CC[C@@H](c2ccccc2C(F)(F)F)CC1` [Example 27, methyl (2R,3S,5R)-5-methyl-3-(methylsulfonamido)-2-((((1r,4R)-4-(2-(trifluorometh-yl)phenyl)cyclohexyl)oxy)methyl)pyrrolidine-1-carboxylate] returned an Emax of 100%.

Turning to `COC(=O)N1[C@H](C)C[C@H](NS(C)(=O)=O)[C@@H]1CO[C@H]1CC[C@@H](c2c(F)ccc(F)c2F)CC1` [Example 28, methyl (2R,3S,5R)-5-methyl-3-(methylsulfonamido)-2-((((1r,4R)-4-(2,3,6-trifluorophenyl)-cyclohexyl)oxy)methyl)pyrro-lidine-1-carboxylate], the Emax came to 102%.

Consider `COC(=O)N1[C@H](C)C[C@H](NS(=O)(=O)CF)[C@@H]1CO[C@H]1CC[C@@H](c2ccccc2)CC1` [Example 29, methyl (2R,3S,5R)-3-((fluoromethyl)sulfonamido)-5-methyl-2-((((1r,4R)-4-phenylcyclohexyl)oxy)meth-yl)pyrrolidine-1-carboxylate], for which the Emax stood at 102%.

The molecule `COC(=O)N1[C@H](C)C[C@H](NS(=O)(=O)N(C)C)[C@@H]1CO[C@@H]1CC[C@H](c2ccccc2)CC1F` (stereo partly drawn) [Example 30, methyl (2R,3S,5R)-3-((N,N-dimethylsulfamoyl)amino)-2-((((1R,4S)-2-fluoro-4-phenylcyclohexyl)oxy)methyl)-5-methylpyrrolidine-1-carboxylate] displayed an Emax of 100%.

`COC(=O)N1[C@H](C)C[C@H](NS(=O)(=O)N(C)C)[C@@H]1CO[C@@H]1CC[C@H](c2cccc(F)c2)CC1F` (stereo partly drawn) [Example 31, methyl (2R,3S,5R)-3-((N,N-dimethylsulfamoyl)amino)-2-((((1R,4S)-2-fluoro-4-(3-fluorophenyl)cyclohexyl)oxy)methyl)-5-methylpyrrolidine-1-carboxylate] came in with an Emax of 100%.

With `COC(=O)N1[C@H](C)C[C@H](NS(=O)(=O)N(C)C)[C@@H]1CO[C@H]1CC[C@@H](c2cc(F)cc(F)c2)CC1` [Example 32, methyl (2R,3S,5R)-2-((((1s,4S)-4-(3,5-difluorophenyl)cyclohexyl)oxy)methyl)-3-((N,N-dimethylsulfamoyl)amino)-5-methylpyrrolidine-1-carboxylate], the Emax came to 101%.

The molecule `COC(=O)N1[C@H](C)C[C@H](NS(C)(=O)=O)[C@@H]1COC1CCC(c2ccccc2)CC1OC` (stereo partly drawn) [Example 33, methyl (2R,3S,5R)-2-(((2-methoxy-4-phenylcyclohexyl)oxy)methyl)-5-methyl-3-(methylsulfonamido)pyrrolidine-1-carboxylate] displayed an IC50 of 2.15 µM and an Emax of 92%.

`COC(=O)N1[C@H](C)C[C@H](NS(C)(=O)=O)[C@@H]1COC1CCC(c2ccccc2)CC1C` (stereo partly drawn) [Example 34, methyl (2R,3S,5R)-5-methyl-2-(((2-methyl-4-phenylcyclohexyl)oxy)methyl)-3-(methylsulfonamido)pyrrolidine-1-carboxylate] gave an IC50 of 0.0375 µM and an Emax of 99%.

`COC(=O)N1[C@H](C)C[C@H](NS(=O)(=O)N(C)C)[C@@H]1CO[C@@H]1CC=C(c2cccc(F)c2)CC1` [Example 35, methyl (2R,3S,5R)-3-((N,N-dimethylsulfamoyl)amino)-2-((((S)-3′-fluoro-2,3,4,5-tetrahydro-[1,1′-biphenyl]-4-yl)oxy)methyl)-5-methylpyrrolidine-1-carboxylate] gave an IC50 of 0.0125 µM and an Emax of 102%.

Turning to `COC(=O)N1[C@H](C)C[C@H](NS(=O)(=O)N(C)C)[C@@H]1CO[C@H]1CCC(c2cccc(F)c2)C(O)C1` (stereo partly drawn) [Example 36, methyl (2R,3S,5R)-3-((N,N-dimethylsulfamoyl)amino)-2-((((1S)-4-(3-fluorophenyl)-3-hydroxycyclohexyl)oxy)methyl)-5-methylpyrrolidine-1-carboxylate], the IC50 is 0.00076 µM and the maximal effect (Emax) stood at 99%.

In turn, `CNS(=O)(=O)N[C@H]1C[C@@H](C)N(C(=O)OC(C)C)[C@H]1COC1CCN(c2ncccn2)CC1` [Example 38, isopropyl (2R,3S,5R)-5-methyl-3-((N-methylsulfamoyl)amino)-2-(((1-(pyrimidin-2-yl)piperidin-4-yl)oxy)methyl)pyrrolidine-1-carboxylate] returned a 50% inhibitory concentration (IC50) of 0.00707 µM and an Emax of 100%.

On to `CC(C)OC(=O)N1[C@H](C)C[C@H](NS(=O)(=O)N(C)C)[C@@H]1COC1CCN(c2ncc(F)cn2)CC1` [Example 39, isopropyl (2R,3S,5R)-3-((N,N-dimethylsulfamoyl)amino)-2-(((1-(5-fluoropyrimidin-2-yl)piperidin-4-yl)oxy)methyl)-5-methylpyrrolidine-1-carboxylate], for which the Emax was determined as 101%.

Regarding `CCC1CC(NS(C)(=O)=O)C(CO[C@H]2CC[C@@H](c3ccccc3)CC2)N1C(=O)OC` (stereo partly drawn) [Example 40, methyl (CIS)-5-ethyl-3-(methylsulfonamido)-2-((((CIS)-4-phenylcyclohexyl)oxy)-methyl)pyrrolidine-1-carboxylate], the “Emax (%)” value worked out at 100%.

Molecule `COC(=O)N1C(C2CC2)C[C@H](NS(C)(=O)=O)C1COC1CCC(c2ccccc2)CC1` (stereo partly drawn) [Example 44, methyl (CIS)-5-cyclopropyl-3-(methylsulfonamido)-2-((((CIS)-4-phenylcyclohexyl)oxy)methyl)pyrrolidine-1-carboxylate] had an Emax of 101%.

Molecule `CC[C@H]1C[C@@H](NS(C)(=O)=O)[C@@H](CO[C@H]2CC[C@@H](c3ccccc3)CC2)N1C(=O)OC` [Example 45, methyl (2S,3R,5S)-5-ethyl-3-(methylsulfonamido)-2-((((CIS)-4-phenylcyclohexyl)oxy)methyl)-pyrrolidine-1-carboxylate] had an Emax of 62%.

As for `CC[C@@H]1C[C@H](NS(C)(=O)=O)[C@H](CO[C@H]2CC[C@@H](c3ccccc3)CC2)N1C(=O)OC` [Example 46, methyl (2R,3S,5R)-5-ethyl-3-(methylsulfonamido)-2-((((CIS)-4-phenylcyclohexyl)oxy)methyl)pyrrolidine-1-carboxylate], the Emax amounted to 101%.

For the molecule `COC(=O)N1C(CCO)CC(NS(C)(=O)=O)C1CO[C@H]1CC[C@@H](c2ccccc2)CC1` (stereo partly drawn) [Example 49, methyl (CIS)-5-(2-hydroxyethyl)-3-(methylsulfonamido)-2-((((CIS)-4-phenylcyclohexyl)oxy)methyl)pyrrolidine-1-carboxylate], the “Emax (%)” value is 102%.

For `COC(=O)N1C(CO)CC(NS(C)(=O)=O)C1CO[C@H]1CC[C@@H](c2ccccc2)CC1` (stereo partly drawn) [Example 50, methyl (CIS)-5-(hydroxymethyl)-3-(methylsulfonamido)-2-((((CIS)-4-phenylcyclohexyl)oxy)-methyl)pyrrolidine-1-carboxylate], the “Emax (%)” value is 101%.

With `COC[C@@H]1C[C@H](NS(=O)(=O)N(C)C)[C@H](CO[C@H]2CC[C@@H](c3cccc(F)c3)CC2)N1C(=O)OC` [Example 51, methyl (2R,3S,5S)-3-((N,N-dimethylsulfamoyl)amino)-2-((((CIS)-4-(3-fluorophenyl)cyclohexyl)-oxy)methyl)-5-(methoxymethyl)pyrrolidine-1-carboxylate], the Emax is 101%.

With `COC(=O)N1[C@H](CC#N)C[C@H](NS(=O)(=O)N(C)C)[C@@H]1CO[C@H]1CC[C@@H](c2cccc(F)c2)CC1` [Example 52, methyl (2R,3S,5S)-5-(cyanomethyl)-3-((N,N-dimethylsulfamoyl)amino)-2-((((CIS)-4-(3-fluorophenyl)cyclohexyl)oxy)methyl)pyrrolidine-1-carboxylate], the IC50 came to 0.0078 µM and the Emax stood at 102%.

For `COC(=O)N1[C@H](C)C[C@H](NS(=O)(=O)N(C)CC#N)[C@@H]1CO[C@H]1CC[C@@H](c2cccc(F)c2)CC1` [Example 53, Methyl (2R,3S,5R)-3-((N-(cyanomethyl)-N-methylsulfamoyl)amino)-2-((((1s,4S)-4-(3-fluorophenyl)cyclohexyl)oxy)methyl)-5-methylpyrrolidine-1-carboxylate], the “Emax (%)” value is 102%.

Turning to `COC(=O)N1[C@H](C)C[C@H](NS(=O)(=O)N(C)CCC#N)[C@@H]1CO[C@H]1CC[C@@H](c2cccc(F)c2)CC1` [Example 54, methyl (2R,3S,5R)-3-((N-(2-cyanoethyl)-N-methylsulfamoyl)amino)-2-((((1s,4S)-4-(3-fluorophenyl)cyclohex-yl)oxy)methyl)-5-methylpyrrolidine-1-carboxylate], the “Emax (%)” value is 98%.

Regarding `COCCN(C)S(=O)(=O)N[C@H]1C[C@@H](C)N(C(=O)OC)[C@H]1CO[C@H]1CC[C@@H](c2cccc(F)c2)CC1` [Example 55, methyl (2R,3S,5R)-2-((((1s,4S)-4-(3-fluorophenyl)cyclohex-yl)oxy)methyl)-3-((N-(2-methoxyethyl)-N-methylsulfamoyl)amino)-5-methylpyrrolidine-1-carboxylate], the “Emax (%)” value was determined as 100%.

`COC(=O)N1[C@H](C)C[C@H](NS(=O)(=O)N(C)CCO)[C@@H]1CO[C@H]1CC[C@@H](c2cccc(F)c2)CC1` [Example 56, methyl (2R,3S,5R)-2-((((1s,4S)-4-(3-fluorophenyl)cyclohex-yl)oxy)methyl)-3-((N-(2-hydroxyethyl)-N-methylsulfamoyl)amino)-5-methylpyrrolidine-1-carboxylate]: the “Emax (%)” value is listed as 101%.

Turning to `COC(=O)N1[C@H](C)C[C@H](NS(=O)(=O)N(C)CCS(C)(=O)=O)[C@@H]1COC1CCC(c2cccc(F)c2)CC1` (stereo partly drawn) [Example 57, methyl (2R,3S,5R)-2-((((1s,4S)-4-(3-fluorophenyl)cyclohex-yl)oxy)methyl)-5-methyl-3-((N-methyl-N-(2-(methyslulfonyl)-ethyl)sulfamoyl)amino) pyrrolidine-1-carboxylate], the “Emax (%)” value was determined as 100%.
